# ChEMBL document CHEMBL1145390, “Synthesis and preliminary biological characterization of new semisynthetic derivatives of ramoplanin” (J Med Chem, 2007)
# Numbered stars: 1 amine (or outer) side, 2 acyl side, 3 side chain; on linkers, the order of the positions; unused ones are H or OH. Bridge positions count the residues as written; N and C are the ends. Square brackets hold non-standard residues; d marks the D form. Peptide text beside a SMILES is read from it. * marks the point of attachment. Hpg(αMan(1-2)αMan) = N[C@H](C(=O)O)c1ccc(O[C@H]2O[C@H](CO)[C@@H](O)[C@H](O)[C@@H]2O[C@H]2O[C@H](CO)[C@@H](O)[C@H](O)[C@@H]2O)cc1; Octa(2Z,4E)dienoyl(7-Me) = CC(C)C/C=C/C=C\C(=O)*; X1 = NC(=O)[C@@H](O[*:3])[C@H](N[*:1])C(=O)[*:2]; Hpg(3-Cl) = N[C@H](C(=O)O)c1ccc(O)c(Cl)c1; d(aThr) = C[C@@H](O)[C@@H](N)C(=O)O; dHpg = N[C@@H](C(=O)O)c1ccc(O)cc1; Hpg = N[C@H](C(=O)O)c1ccc(O)cc1; aThr = C[C@H](O)[C@H](N)C(=O)O; dOrn = NCCC[C@@H](N)C(=O)O
# Key:
# [1] = test system: Escherichia coli; experiment: Antibacterial activity against Escherichia coli SKF-12140 after 24 hrs by broth microdilution method; type: functional; conditions: read-out: MIC
# [2] = test system: Enterococcus faecalis; experiment: Antibacterial activity against Enterococcus faecalis after 24 hrs by broth microdilution method; type: functional; conditions: read-out: MIC
# [3] = Toxicity assessed as hemolysis in erythrocytes at 100 mg/L; type: cell-based, Erythrocyte; conditions: human, read-out: Activity
# [4] = test system: Streptococcus pyogenes; experiment: Antibacterial activity against Streptococcus pyogenes C203 after 24 hrs by broth microdilution method; type: functional; conditions: C203, 24 h, read-out: MIC
# [5] = test system: Staphylococcus aureus; experiment: Antibacterial activity against methicillin-resistant and vancomycin-intermediate resistant Staphylococcus aureus clinical isolate after 24 hrs by broth microdilution method; type: functional; conditions: read-out: MIC
# [6] = test system: Staphylococcus aureus; experiment: Antibacterial activity against Staphylococcus aureus Smith after 24 hrs by broth microdilution method; type: functional; conditions: read-out: MIC
# [7] = test system: Candida albicans; experiment: Antifungal activity against Candida albicans SKF-2270 after 24 hrs by broth microdilution method; type: functional; conditions: read-out: MIC
# [8] = Toxicity assessed as hemolysis in erythrocytes at 180 mg/L; type: cell-based, Erythrocyte; conditions: human, erythrocytes; read-out: Activity
# [9] = Toxicity assessed as hemolysis in erythrocytes at 90 mg/L; type: cell-based, Erythrocyte; conditions: human, erythrocytes; read-out: Activity
# [10] = test system: Staphylococcus aureus; experiment: Antibacterial activity against methicillin-resistant Staphylococcus aureus clinical isolate after 24 hrs by broth microdilution method; type: functional; conditions: read-out: MIC
# [11] = test system: Enterococcus faecium; experiment: Antibacterial activity against Enterococcus faecium after 24 hrs by broth microdilution method; type: functional; conditions: read-out: MIC
# [12] = test system: Staphylococcus aureus; experiment: Antibacterial activity against vancomycin-intermediate resistant Staphylococcus aureus clinical isolate after 24 hrs by broth microdilution method; type: functional
# [13] = test system: Enterococcus faecium; experiment: Antibacterial activity against vancomycin A-resistant Enterococcus faecium clinical isolate after 24 hrs by broth microdilution method; type: functional; conditions: read-out: MIC
# [14] = Toxicity assessed as hemolysis in erythrocytes at 400 mg/L; type: cell-based, Erythrocyte; conditions: human, read-out: Activity
# [15] = test system: Staphylococcus aureus; experiment: Antibacterial activity against vancomycin-intermediate resistant Staphylococcus aureus clinical isolate in presence of 30% bovine serum after 24 hrs by broth microdilution method; type: functional
# [16] = Toxicity assessed as hemolysis in erythrocytes at 200 mg/L; type: cell-based, Erythrocyte; conditions: human, read-out: Activity
# [17] = test system: Enterococcus faecalis; experiment: Antibacterial activity against vancomycin-resistant Enterococcus faecalis in presence of 30% bovine serum after 24 hrs by broth microdilution method; type: functional
# [18] = test system: Enterococcus faecium; experiment: Antibacterial activity against vancomycin A-resistant Enterococcus faecium clinical isolate in presence of 30% bovine serum after 24 hrs by broth microdilution method; type: functional
# [19] = test system: Staphylococcus aureus; experiment: Antibacterial activity against Staphylococcus aureus Smith in presence of 30% bovine serum after 24 hrs by broth microdilution method; type: functional
# [20] = test system: Enterococcus faecalis; experiment: Antibacterial activity against vancomycin A-resistant Enterococcus faecalis after 24 hrs by broth microdilution method; type: functional; conditions: read-out: MIC
SMILES,MIC [1],MIC [2],hemolysis at 100 mg/L [3],MIC [4],MIC [5],MIC [6],MIC [7],hemolysis at 180 mg/L [8],hemolysis at 90 mg/L [9],MIC [10],MIC [11],MIC [12],MIC [13],hemolysis at 400 mg/L [14],MIC [15],hemolysis at 200 mg/L [16],MIC [17],MIC [18],MIC [19],MIC [20]
"CC(C)C/C=C/C=C\C(=O)N[C@@H](CC(N)=O)C(=O)N[C@@H]1C(=O)N[C@H](c2ccc(O)cc2)C(=O)N[C@H](CCCN)C(=O)N[C@H]([C@@H](C)O)C(=O)N[C@@H](c2ccc(O)cc2)C(=O)N[C@H](c2ccc(O)cc2)C(=O)N[C@@H]([C@H](C)O)C(=O)N[C@@H](Cc2ccccc2)C(=O)N[C@H](CCCN)C(=O)N[C@@H](c2ccc(O[C@H]3O[C@H](CO)[C@@H](O)[C@H](O)[C@@H]3O[C@H]3O[C@H](CO)[C@@H](O)[C@H](O)[C@@H]3O)cc2)C(=O)N[C@H]([C@@H](C)O)C(=O)N[C@@H](c2ccc(O)cc2)C(=O)NCC(=O)N[C@@H](CC(C)C)C(=O)N[C@H](C)C(=O)N[C@@H](c2ccc(O)c(Cl)c2)C(=O)O[C@@H]1C(N)=O [RAMOPLANIN A2] ({Octa(2Z,4E)dienoyl(7-Me)}-N[X1][dHpg][dOrn][d(aThr)][Hpg][dHpg][aThr]F[dOrn][Hpg(αMan(1-2)αMan)][d(aThr)][Hpg]GL[dA][Hpg(3-Cl)]; ester 2-C)",< 32 µg/mL,< 0.03 µg/mL,87%,< 0.03 µg/mL,1 µg/mL,< 0.03 µg/mL,< 32 µg/mL,79%,81%,0.06 µg/mL,< 0.03 µg/mL,0.25 µg/mL,–,–,–,–,–,–,–,–
CC(C)/C=C/C=C\CC(=O)N[C@@H](CC(N)=O)C(=O)NC[C@@H]1C(=O)N[C@H](c2ccc(O)cc2)C(=O)N[C@H](CCCN)C(=O)N[C@H](C(C)C)C(=O)N[C@@H](c2ccc(O)cc2)C(=O)N[C@H](c2ccc(O)cc2)C(=O)N[C@@H]([C@@H](C)O)C(=O)N[C@@H](Cc2ccccc2)C(=O)N[C@H](CCCN)C(=O)N[C@@H](c2ccc(O[C@H]3O[C@H](CO)[C@@H](O)[C@H](O)[C@@H]3O[C@H]3O[C@H](CO)[C@@H](O)[C@H](O)[C@@H]3O)cc2)C(=O)N[C@H]([C@@H](C)O)C(=O)N[C@@H](c2ccc(O)cc2)C(=O)NCC(=O)N[C@@H](CC(C)C)C(=O)N[C@H](C)C(=O)N[C@@H](c2ccc(O)c(Cl)c2)C(=O)O[C@@H]1C(N)=O,> 128 µg/mL,≤ 0.125 µg/mL,64%,≤ 0.125 µg/mL,1 µg/mL,≤ 0.125 µg/mL,> 128 µg/mL,–,–,≤ 0.125 µg/mL,0.25 µg/mL,0.5 µg/mL,≤ 0.125 µg/mL,97%,2 µg/mL,81%,0.5 µg/mL,1 µg/mL,0.5 µg/mL,–
CCC/C=C/C=C/CC(=O)N[C@@H](CC(N)=O)C(=O)NC[C@@H]1C(=O)N[C@H](c2ccc(O)cc2)C(=O)N[C@H](CCCN)C(=O)N[C@H](C(C)C)C(=O)N[C@@H](c2ccc(O)cc2)C(=O)N[C@H](c2ccc(O)cc2)C(=O)N[C@@H]([C@@H](C)O)C(=O)N[C@@H](Cc2ccccc2)C(=O)N[C@H](CCCN)C(=O)N[C@@H](c2ccc(O[C@H]3O[C@H](CO)[C@@H](O)[C@H](O)[C@@H]3O[C@H]3O[C@H](CO)[C@@H](O)[C@H](O)[C@@H]3O)cc2)C(=O)N[C@H]([C@@H](C)O)C(=O)N[C@@H](c2ccc(O)cc2)C(=O)NCC(=O)N[C@@H](CC(C)C)C(=O)N[C@H](C)C(=O)N[C@@H](c2ccc(O)c(Cl)c2)C(=O)O[C@@H]1C(N)=O,> 128 µg/mL,≤ 0.125 µg/mL,23%,≤ 0.125 µg/mL,1 µg/mL,≤ 0.125 µg/mL,> 128 µg/mL,–,–,≤ 0.125 µg/mL,≤ 0.125 µg/mL,0.5 µg/mL,–,78%,2 µg/mL,37%,0.5 µg/mL,1 µg/mL,0.5 µg/mL,–
CC(C)C[C@@H]1NC(=O)CNC(=O)[C@H](c2ccc(O)cc2)NC(=O)[C@@H]([C@@H](C)O)NC(=O)[C@H](c2ccc(O[C@H]3O[C@H](CO)[C@@H](O)[C@H](O)[C@@H]3O[C@H]3O[C@H](CO)[C@@H](O)[C@H](O)[C@@H]3O)cc2)NC(=O)[C@@H](CCCN)NC(=O)[C@H](Cc2ccccc2)NC(=O)[C@H]([C@@H](C)O)NC(=O)[C@@H](c2ccc(O)cc2)NC(=O)[C@H](c2ccc(O)cc2)NC(=O)[C@@H](C(C)C)NC(=O)[C@@H](CCCN)NC(=O)[C@@H](c2ccc(O)cc2)NC(=O)[C@@H](CNC(=O)[C@H](CC(N)=O)NC(=O)Cc2ccccc2)[C@@H](C(N)=O)OC(=O)[C@H](c2ccc(O)c(Cl)c2)NC(=O)[C@@H](C)NC1=O.Cl,> 128 µg/mL,2 µg/mL,3%,–,4 µg/mL,1 µg/mL,> 128 µg/mL,0%,0%,1 µg/mL,2 µg/mL,2 µg/mL,1 µg/mL,2%,2 µg/mL,0%,2 µg/mL,1 µg/mL,1 µg/mL,2 µg/mL
CC(C)C/C=C/C=C/CC(=O)N[C@@H](CC(N)=O)C(=O)NC[C@@H]1C(=O)N[C@H](c2ccc(O)cc2)C(=O)N[C@H](CCCN)C(=O)N[C@H](C(C)C)C(=O)N[C@@H](c2ccc(O)cc2)C(=O)N[C@H](c2ccc(O)cc2)C(=O)N[C@@H]([C@@H](C)O)C(=O)N[C@@H](Cc2ccccc2)C(=O)N[C@H](CCCN)C(=O)N[C@@H](c2ccc(O[C@H]3O[C@H](CO)[C@@H](O)[C@H](O)[C@@H]3O[C@H]3O[C@H](CO)[C@@H](O)[C@H](O)[C@@H]3O)cc2)C(=O)N[C@H]([C@@H](C)O)C(=O)N[C@@H](c2ccc(O)cc2)C(=O)NCC(=O)N[C@@H](CC(C)C)C(=O)N[C@H](C)C(=O)N[C@@H](c2ccc(O)c(Cl)c2)C(=O)O[C@@H]1C(N)=O,> 128 µg/mL,≤ 0.125 µg/mL,85%,≤ 0.125 µg/mL,1 µg/mL,≤ 0.125 µg/mL,> 128 µg/mL,–,–,≤ 0.125 µg/mL,≤ 0.125 µg/mL,0.5 µg/mL,–,78%,4 µg/mL,87%,0.5 µg/mL,1 µg/mL,1 µg/mL,–
CC(C)/C=C/C=C/CC(=O)N[C@@H](CC(N)=O)C(=O)NC[C@@H]1C(=O)N[C@H](c2ccc(O)cc2)C(=O)N[C@H](CCCN)C(=O)N[C@H](C(C)C)C(=O)N[C@@H](c2ccc(O)cc2)C(=O)N[C@H](c2ccc(O)cc2)C(=O)N[C@@H]([C@@H](C)O)C(=O)N[C@@H](Cc2ccccc2)C(=O)N[C@H](CCCN)C(=O)N[C@@H](c2ccc(O[C@H]3O[C@H](CO)[C@@H](O)[C@H](O)[C@@H]3O[C@H]3O[C@H](CO)[C@@H](O)[C@H](O)[C@@H]3O)cc2)C(=O)N[C@H]([C@@H](C)O)C(=O)N[C@@H](c2ccc(O)cc2)C(=O)NCC(=O)N[C@@H](CC(C)C)C(=O)N[C@H](C)C(=O)N[C@@H](c2ccc(O)c(Cl)c2)C(=O)O[C@@H]1C(N)=O,> 128 µg/mL,0.25 µg/mL,30%,≤ 0.125 µg/mL,2 µg/mL,≤ 0.125 µg/mL,> 128 µg/mL,–,–,0.25 µg/mL,0.25 µg/mL,1 µg/mL,≤ 0.125 µg/mL,–,4 µg/mL,29%,1 µg/mL,1 µg/mL,1 µg/mL,≤ 0.125 µg/mL
CCC/C=C/C=C\CC(=O)N[C@@H](CC(N)=O)C(=O)NC[C@@H]1C(=O)N[C@H](c2ccc(O)cc2)C(=O)N[C@H](CCCN)C(=O)N[C@H](C(C)C)C(=O)N[C@@H](c2ccc(O)cc2)C(=O)N[C@H](c2ccc(O)cc2)C(=O)N[C@@H]([C@@H](C)O)C(=O)N[C@@H](Cc2ccccc2)C(=O)N[C@H](CCCN)C(=O)N[C@@H](c2ccc(O[C@H]3O[C@H](CO)[C@@H](O)[C@H](O)[C@@H]3O[C@H]3O[C@H](CO)[C@@H](O)[C@H](O)[C@@H]3O)cc2)C(=O)N[C@H]([C@@H](C)O)C(=O)N[C@@H](c2ccc(O)cc2)C(=O)NCC(=O)N[C@@H](CC(C)C)C(=O)N[C@H](C)C(=O)N[C@@H](c2ccc(O)c(Cl)c2)C(=O)O[C@@H]1C(N)=O,> 128 µg/mL,≤ 0.125 µg/mL,65%,≤ 0.125 µg/mL,1 µg/mL,≤ 0.125 µg/mL,> 128 µg/mL,–,–,≤ 0.125 µg/mL,≤ 0.125 µg/mL,0.5 µg/mL,–,94%,2 µg/mL,83%,0.5 µg/mL,1 µg/mL,0.5 µg/mL,–
